# US20240041042A1, “1-(PYRIDYL)-5-AZINYLPYRAZOLE DERIVATIVES, AND THEIR USE FOR CONTROL OF UNDESIRED PLANT GROWTH” (Bayer Aktiengesellschaft, priority 2020, published 2024)
# Where two headings read alike, the source gives them in different places.
# Tests used:
# Type in all cases: in vivo
# [1] = tested on: Alopecurus myosuroides (ALOMY); test: Pre-emergence herbicidal action against ALOMY; details: scored visually after about 3 weeks, 100% = plants have died
# Source text: (§1) Seeds of monocotyledonous and dicotyledonous weed plants and crop plants are placed in plastic or organic planting pots and covered with soil. The compounds of the invention, formulated in the form of wettable powders (WP) or as emulsion concentrates (EC), are then applied to the surface of the covering soil as aqueous suspension or emulsion with addition of 0.5% additive at a water application rate equivalent to 600 l/ha. After the treatment, the pots are placed in a greenhouse and kept under good growth conditions for the trial plants. After about 3 weeks, the effect of the preparations is scored visually in comparison with untreated controls as percentages. For example, 100% activity=the plants have died, 0% activity=like control plants.
# (§2) Tables A1 to A13 below show the effects of selected compounds of the general formula (I) on various harmful plants and at an application rate corresponding to 320 g/ha or lower, which were obtained by the experimental procedure mentioned above. The appendices “a”, “b” and “c” give differentiation by dosage used with otherwise the same harmful plants tested.
# [2] = tested on: Amaranthus retroflexus (AMARE); test: Pre-emergence herbicidal action against AMARE; details: visual scoring after about 3 weeks vs untreated controls
# Source text: as §1, §2
# Avena fatua (AVEFA) [3] = test: Pre-emergence herbicidal action against AVEFA; details: 320 g/ha, visual scoring after about 3 weeks vs untreated controls
# Source text: as §1, §2
# [4] = tested on: Echinochloa crus-galli (ECHCG); test: Pre-emergence herbicidal action against ECHCG; details: dosage 320 g/ha
# Source text: as §1, §2
# Lolium rigidum (LOLRI) [5] = test: Pre-emergence herbicidal action against LOLRI
# Source text: as §1, §2
# [6] = tested on: Matricaria inodora (MATIN); test: Pre-emergence herbicidal action against MATIN; details: dosage 320 g/ha
# Source text: as §1, §2
# Setaria viridis (SETVI) [7] = test: Pre-emergence herbicidal action against SETVI
# Source text: as §1, §2
# [8] = tested on: Verconica persica (VERPE); test: Pre-emergence herbicidal action against VERPE; details: dosage 320 g/ha
# Source text: as §1, §2
# Viola tricolor (VIOTR) [9] = test: Pre-emergence herbicidal action against VIOTR
# Source text: as §1, §2
# [10] = tested on: Alopecurus myosuroides (ALOMY); test: Post-emergence herbicidal action against ALOMY; details: visual rating about 3 weeks after treatment vs untreated controls (100% = plants have died, 0% = like control plants)
# Experimental: (§3) Seeds of monocotyledonous and dicotyledonous weeds and crop plants are placed in sandy loam in plastic or organic planting pots, covered with soil and cultivated in a greenhouse under controlled growth conditions. 2 to 3 weeks after sowing, the test plants are treated at the one-leaf stage. The compounds of the invention, formulated in the form of wettable powders (WP) or as emulsion concentrates (EC), are then sprayed onto the green parts of the plants as aqueous suspension or emulsion with addition of 0.5% additive at a water application rate of 600 l/ha (converted). After the test plants have been kept in the greenhouse under optimum growth conditions for about 3 weeks, the activity of the preparations is rated visually in comparison to untreated controls. For example, 100% activity=the plants have died, 0% activity=like control plants.
# (§4) Tables B1 to B13 below show the effects of selected compounds of the general formula (I) according to Table 1 on various harmful plants and at an application rate corresponding to 320 g/ha or lower, which were obtained by the experimental procedure mentioned above. The appendices “a”, “b” and “c” give differentiation by dosage used with otherwise the same harmful plants tested.
# [11] = tested on: Amaranthus retroflexus (AMARE); test: Post-emergence herbicidal action against AMARE
# Experimental: as §3, §4
# Avena fatua (AVEFA) [12] = test: Post-emergence herbicidal action against AVEFA; details: visual rating about 3 weeks after treatment
# Experimental: as §3, §4
# [13] = tested on: Echinochloa crus-galli (ECHCG); test: Post-emergence herbicidal action against ECHCG
# Experimental: as §3, §4
# Lolium rigidum (LOLRI) [14] = test: Post-emergence herbicidal action against LOLRI
# Experimental: as §3, §4
# [15] = tested on: Pharbitis purpurea (PHBPU); test: Post-emergence herbicidal action against PHBPU
# Experimental: as §3, §4
# Setaria viridis (SETVI) [16] = test: Post-emergence herbicidal action against SETVI
# Experimental: as §3, §4
# [17] = tested on: Verconica persica (VERPE); test: Post-emergence herbicidal action against VERPE
# Experimental: as §3, §4
# Oryza sativa (ORYSA) = details: crop plant compatibility
# Experimental: as §3
# (§5) The observed effects on selected crop plants are reported here in comparison to the untreated controls (values in %). The appendices “a”, “b” and “c” give differentiation by dosage used with otherwise the same crop plants tested.
# Zea mays (ZEAMX) = details: for Post-emergence action against ZEAMX in %: crop plant compatibility, effect vs untreated controls
# Experimental: as §3, §5
# [18] = tested on: Polygonum convolvulus (POLCO); test: Pre-emergence herbicidal action against POLCO; details: dosage 320 g/ha
# Source text: as §1, §2
# [19] = tested on: Abutilon theophrasti (ABUTH); test: Post-emergence herbicidal action against ABUTH; details: 320 g/ha, visual rating about 3 weeks after treatment vs untreated controls (100% = plants have died, 0% = like control plants)
# Experimental: as §3, §4
# [20] = tested on: Polygonum convolvulus (POLCO); test: Post-emergence herbicidal action against POLCO; details: dosage 320 g/ha
# Experimental: as §3, §4
# Viola tricolor (VIOTR) [21] = test: Post-emergence herbicidal action against VIOTR; details: 320 g/ha
# Experimental: as §3, §4
# [22] = 80 g/ha, visual rating about 3 weeks after treatment vs untreated controls (100% = plants have died, 0% = like control plants)
# [23] = 80 g/ha, effect in comparison to untreated controls
compound,measurement,setting,value
CCOC(=O)[C@@H](C)Oc1nn(-c2ccccn2)c(-c2ccc(F)nc2)c1Br [Example I-91],Pre-emergence action against ALOMY,[1]; 80 g/ha,90%
same,Pre-emergence action against ALOMY,[1]; 320 g/ha,100%
same,Pre-emergence action against AMARE in %,[2]; 80 g/ha,90%
same,Pre-emergence action against AMARE in %,[2]; 320 g/ha,100%
same,Pre-emergence action against AVEFA in %,Avena fatua (AVEFA) [3],100%
same,Pre-emergence action against ECHCG in %,[4],100%
same,Pre-emergence action against LOLRI in %,Lolium rigidum (LOLRI) [5]; dosage 80 g/ha,100%
same,Pre-emergence action against LOLRI in %,Lolium rigidum (LOLRI) [5]; dosage 320 g/ha,100%
same,Pre-emergence action against MATIN in %,[6],90%
same,Pre-emergence action against SETVI in %,Setaria viridis (SETVI) [7]; dosage 80 g/ha,100%
same,Pre-emergence action against SETVI in %,Setaria viridis (SETVI) [7]; dosage 320 g/ha,100%
same,Pre-emergence action against VERPE in %,[8],100%
same,Pre-emergence action against VIOTR in %,"Viola tricolor (VIOTR) [9]; 320 g/ha, Viola tricolor",100%
same,Pre-emergence action against VIOTR in %,Viola tricolor (VIOTR) [9]; dosage 80 g/ha,90%
same,Post-emergence action against ALOMY in %,[10]; 80 g/ha,90%
same,Post-emergence action against AMARE in %,[11]; [22],90%
same,Post-emergence action against AVEFA in %,Avena fatua (AVEFA) [12]; 80 g/ha,90%
same,Post-emergence action against ECHCG in %,[13]; dosage 80 g/ha,80%
same,Post-emergence action against LOLRI in %,Lolium rigidum (LOLRI) [14]; dosage 80 g/ha,90%
same,Post-emergence action against PHBPU in %,[15]; dosage 80 g/ha,80%
same,Post-emergence action against SETVI in %,Setaria viridis (SETVI) [16]; dosage 80 g/ha,80%
same,Post-emergence action against VERPE in %,[17]; dosage 80 g/ha,80%
same,Post-emergence action against ORYSA in %,"Oryza sativa (ORYSA); 20 g/ha, effect vs untreated controls",0%
same,Post-emergence action against ORYSA in %,Oryza sativa (ORYSA); [23],20%
same,Post-emergence action against ZEAMX in % (crop plant compatibility),"Zea mays (ZEAMX); 20 g/ha, ZEAMX, effect in comparison to untreated controls",20%
CCOC(=O)[C@@H](C)Oc1nn(-c2ncccc2F)c(-c2ccc(F)nc2)c1F [Example I-320],Pre-emergence action against ALOMY,[1]; 320 g/ha,90%
same,Pre-emergence action against AMARE in %,[2]; 80 g/ha,80%
same,Pre-emergence action against AMARE in %,[2]; 320 g/ha,90%
same,Pre-emergence action against AVEFA in %,Avena fatua (AVEFA) [3],90%
same,Pre-emergence action against ECHCG in %,[4],90%
same,Pre-emergence action against LOLRI in %,Lolium rigidum (LOLRI) [5]; dosage 320 g/ha,100%
same,Pre-emergence action against MATIN in %,[6],80%
same,Pre-emergence action against POLCO in %,[18],90%
same,Pre-emergence action against SETVI in %,Setaria viridis (SETVI) [7]; dosage 320 g/ha,90%
same,Pre-emergence action against VIOTR in %,"Viola tricolor (VIOTR) [9]; 320 g/ha, Viola tricolor",100%
same,Post-emergence action against ABUTH in %,[19],80%
same,Post-emergence action against ALOMY in %,[10]; 320 g/ha,100%
same,Post-emergence action against AMARE in %,[11]; [22],80%
same,Post-emergence action against AMARE in %,"[11]; 320 g/ha, visual rating about 3 weeks after treatment",80%
same,Post-emergence action against AVEFA in %,Avena fatua (AVEFA) [12]; 320 g/ha,80%
same,Post-emergence action against ECHCG in %,[13]; dosage 320 g/ha,90%
same,Post-emergence action against LOLRI in %,Lolium rigidum (LOLRI) [14]; dosage 320 g/ha,90%
same,Post-emergence action against PHBPU in %,[15]; dosage 320 g/ha,80%
same,Post-emergence action against POLCO in %,[20],80%
same,Post-emergence action against SETVI in %,Setaria viridis (SETVI) [16]; dosage 320 g/ha,90%
same,Post-emergence action against VERPE in %,"[17]; 320 g/ha, VERPE",90%
same,Post-emergence action against VIOTR in %,Viola tricolor (VIOTR) [21],80%
same,Post-emergence action against ORYSA in %,Oryza sativa (ORYSA); [23],0%
same,Post-emergence action against ZEAMX in %,Zea mays (ZEAMX); 80 g/ha,0%
same,Post-emergence action against ZEAMX in %,Zea mays (ZEAMX); 320 g/ha,20%
